Test results: patent publication US20260167614A1, “IDENTIFICATION OF SMALL MOLECULES THAT RECRUIT AND ACTIVATE RNASE L” (UNIVERSITY OF FLORIDA RESEARCH FOUNDATION, INCORPORATED, priority 2022, published 2026)
Changes are numbered by the printed parent chain. Each block holds one molecule with its values, some of them ahead of it.

What was measured:
RNase L [1] = target: T1, RNase L (Homo sapiens, UniProt Q05823); assay: FRET-based in vitro RNA cleavage assay (RNase L activation); format: biochemical; conditions: for Relative RNA Cleavage (cleavage of fluorescently labeled RNA, RNase L activation): dose response, fluorescence normalized to 50 μM of 6
T1 construct: made in house; host or cells: Rosetta DE3 E. coli
T1 sequence (Q05823 1-741): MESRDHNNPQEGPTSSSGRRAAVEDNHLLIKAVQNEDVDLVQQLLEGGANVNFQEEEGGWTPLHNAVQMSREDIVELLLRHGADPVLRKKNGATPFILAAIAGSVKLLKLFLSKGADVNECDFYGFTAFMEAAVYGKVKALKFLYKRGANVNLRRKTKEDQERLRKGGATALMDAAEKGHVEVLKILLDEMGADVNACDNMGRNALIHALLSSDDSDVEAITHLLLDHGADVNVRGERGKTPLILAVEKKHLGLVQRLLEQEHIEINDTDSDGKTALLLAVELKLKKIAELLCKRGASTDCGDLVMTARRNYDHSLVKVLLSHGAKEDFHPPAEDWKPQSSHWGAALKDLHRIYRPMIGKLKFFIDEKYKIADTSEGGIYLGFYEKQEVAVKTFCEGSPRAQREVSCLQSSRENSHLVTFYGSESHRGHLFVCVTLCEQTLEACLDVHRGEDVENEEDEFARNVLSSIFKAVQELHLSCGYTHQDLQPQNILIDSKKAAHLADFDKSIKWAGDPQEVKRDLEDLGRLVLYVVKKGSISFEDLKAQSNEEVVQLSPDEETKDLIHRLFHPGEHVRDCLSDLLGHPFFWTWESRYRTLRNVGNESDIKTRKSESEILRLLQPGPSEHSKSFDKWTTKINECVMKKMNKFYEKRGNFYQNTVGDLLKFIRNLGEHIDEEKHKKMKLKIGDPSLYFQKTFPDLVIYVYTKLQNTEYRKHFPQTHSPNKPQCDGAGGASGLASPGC
Source text: The four compounds with the highest confidence (enrichment scores>300 and copy number>25) were selected for further study. The compounds were re-synthesized without the encoding DNA tag and were studied for RNase L activation using a fluorescence-based in vitro assay, completed as previously described.^16 In brief, the assay uses an dually labeled RNA [5′ fluorescein (6-FAM) and 3′ black hole quencher (BHQ)] that harbors multiple preferred substates for RNase L (FIG. 2A).^16 In the presence of a binder that activates RNase L, the enzyme cleaves the RNA, resulting in an increased fluorescence signal. […] 2 and 3 are similar in structure, differing only by the first building block, phenylglycine in 2 and indoline in 3 (FIG. 2C).
FRET-Based In Vitro RNA Cleavage Assay. Samples were prepared as previously described.^3 Briefly, an RNA construct with multiple preferred RNase L cleavage sites^7 (5′ 6-FAM-[…]-3′ BHQ; 100 nM final concentration) was folded in 1× RNase L Assay Buffer (25 mM Tris-HCl, pH 7.4, and 100 mM NaCl) for 1 min at 95° C. followed by snap cooling on ice for 10 min. Following cooling, β-mercaptoethanol (7 mM), ATP (50 μM), and MgCl2 (1 mM) were added. Compound or DMSO (1%; vehicle) was added to the folded RNA, and the samples were incubated for 15 min. Recombinant GST-RNase L-His was then added to the solution (50 nM final concentration), affording a total volume of 33 μL. Technical triplicates (10 μL) were dispensed into 384-well low volume non-binding plate (Corning 4515), and the samples were incubated in the dark for 1 h. Fluorescence was measured using a Tecan infinite M1000 Pro plate reader using an excitation wavelength of 485 nm, emission wavelength of 520 nm, and gain of 100. Data are reported as “Relative RNA Cleavage”, normalizing fluorescence to the highest level of cleavage observed—upon addition of 50 μM of 6, which was set to 1.

RNase L [2] = target: T1, RNase L; assay: RNase L dimerization in vitro by Western blotting; format: biochemical
Method: The position within 2 suitable for conjugation was then determined. […] Therefore, this position was derivatized and assessed for RNase L activation. […] A polyethylene glycol (PEG) linker terminated with a t-butyl ester was attached to yield 5 (FIG. 2C).

RNase L [3] = target: T2, RNase L (Homo sapiens, UniProt Q05823, H672N); assay: Saturation transfer difference (STD) NMR; format: binding; conditions: 3 μM protein, 300 μM compound
T2 construct: GST (N, cleaved yes); made in house; host or cells: BL21 AI Escherichia coli
T2 sequence (Q05823 1-741 H672N): T1 sequence (Q05823 1-741) with H672N
Method: (§1) To assess further the ability of this compound to bind to RNase L, saturation transfer difference (STD) nuclear magnetic resonance (NMR)^20 and circular dichroism (CD) spectroscopic studies were conducted with 6, a compound similar in structure to 5 and a potential intermediate in the synthesis of a resulting RiboTAC (FIGS. 2C & 6B-6C).
(§2) Saturation Transfer Difference (STD) NMR. NMR spectra were acquired at 25° C. on a 600 MHz Bruker Avance III spectrometer equipped with a cryoprobe. Samples were prepared by drying 6 (120 nmol) to a solid and resuspending in deuterated DMSO (4 μL). […] The STD spectra were recorded as an interleaved experiment (n=2) with one experiment including a saturating pulse at −40 ppm for 2 s and one at 0.8 ppm for 2 s. Both spectra were processed with identical phasing before calculating the difference spectra (A) using TopSpin 4.0.6 (Bruker).

RNase L [4] = target: T2, RNase L; assay: Circular dichroism (CD) spectroscopy; format: binding; conditions: 10 μM inactive RNase L, 75 μM compound
Method: as §1
Circular Dichroism (CD) Spectroscopy. […] CD wavelength scans were completed from 190 to 260 nm. […] The spectra were plotted and compared in GraphPad Prism.

lysozyme = assay: Saturation transfer difference (STD) NMR, control protein; format: binding; conditions: 3 μM protein, 300 μM compound
Method: as §1, §2

pre-miR-21 and RNase L = target: T3, pre-miR-21 and RNase L (Homo sapiens, UniProt Q05823, H672N); assay: Co-immunoprecipitation of pre-miR-21 and RNase L; format: binding; conditions: WT 32P-pre-miR-21, inactive RNase L
T3 construct: GST (N, cleaved yes); made in house; host or cells: BL21 AI Escherichia coli
T3 sequence (Q05823 1-741 H672N): T1 sequence (Q05823 1-741) with H672N
Method: (§3) Co-Immunoprecipitation of pre-miR-2I and RNase L. Approximately 20,000 cpm of 32P 5′-end labeled WT or mutant pre-miR-21 or an RNA construct where the A-bulge was mutated to a base pair (5′-[…] UGGGCUGU-3′) was folded in 1× RNase L Assay Buffer for 1 min at 95° C. and cooled on ice for 10 min. Following cooling, β-mercaptoethanol (7 mM), ATP (50 μM), and MgCl2 (1 mM) were added to the solution. The solution was aliquoted, and compounds were incubated in solution for 15 min (1% DMSO final concentration). […] Beads were then washed with 1×PBS supplemented with 0.02% (v/v) Tween-20. Radioactive signal in the supernatant and associated with the beads was quantified by a Beckman Coulter LS6500 Liquid Scintillation Counter. Relative RNA enrichment was calculated by comparing the radioactive signal associated with beads compared to the total radioactive signal from the beads plus the supernatant.

[5] = target: T4, pre-miR-21 mutant and RNase L (Homo sapiens, UniProt Q05823, H672N); assay: Co-immunoprecipitation of mutant pre-miR-21 and RNase L; format: binding; conditions: base paired mutant pre-miR-21, inactive RNase L
T4 construct: GST (N, cleaved yes); made in house; host or cells: BL21 AI Escherichia coli
T4 sequence (Q05823 1-741 H672N): T1 sequence (Q05823 1-741) with H672N
Method: as §3

[6] = test system: phosphorylation of extracellular signal-regulated kinase (ERK); assay: Western blot of pERK versus ERK (RTK signaling); format: cell-based; conditions: Homo sapiens; CRISPR-Control sgRNA MDA-MB-231 cells; read-out: IC50 for inhibition of phosphorylation of ERK
Method: Quantification of Protein Levels by Western Blotting. MDA-MB-231 cells were treated as described in “Cell Culture.” After treatment, the medium was removed, and the cells were washed with 1× Dulbecco's phosphate-buffered saline (DPBS). Total protein was extracted using Mammalian Protein Extraction Reagent (M-PER, Thermo Scientific) according to the manufacturer's protocol. Protein concentration was measured using a Pierce Micro BCA Protein Assay kit (Fisher Scientific). Approximately 20 μg total protein was loaded onto a Tris-glycine gel with a 5% polyacrylamide stacking layer and a 10% polyacrylamide resolving layer. The gel was run at 140 V for ˜1.5 h in 1× Running Buffer (25 mM Tris base, pH 8.3, 190 mM glycine, and 0.1% (w/v) SDS). After electrophoresis, the protein was transferred to a PVDF membrane using 1× Transfer Buffer (25 mM Tris base, pH 8.3, 190 mM glycine, and 20% (v/v) methanol). The membrane was then washed with 1×TBST (Tris-buffered saline with 0.1% (v/v) Tween 20) and blocked in a solution of 5% (w/v) milk in 1×TBST for 30 min with shaking at room temperature. The membrane was then incubated overnight at 4° C. in a solution of primary antibody diluted in 1×TBST containing 5% (w/v) milk. […]

Structure (SMILES): CNC(=O)[C@H](c1ccccc1)N(C)Cc1ccc(-c2cccc(-c3sccc3N)c2)cc1 [Compound 4, (S)-2-(((3′-(3-aminothiophen-2-yl)-[1,1′-biphenyl]-4-yl)methyl)-(methyl)amino)-N-methyl-2-phenylacetamide]
Relative RNA Cleavage (cleavage of fluorescently labeled RNA, RNase L activation) (RNase L [1]): enhanced RNA cleavage compared to 2

Structure (SMILES): CNC(=O)[C@H](c1ccccc1)N(C)Cc1ccc(-c2cccc(-c3sccc3NC(=O)CCOCCOCCOCCC(=O)O)c2)cc1 [Compound 6, (S)-3-(2-(2-(3-((2-(4′-((methyl(2-(methylamino)-2-oxo-1-phenylethyl)amino)methyl)-[1,1′-biphenyl]-3-yl)thiophen-3-yl)amino)-3-oxopropoxy)ethoxy)ethoxy)propanoic acid]
STD-NMR transfer of magnetization (RNase L [3]): transfer of magnetization from the compound to RNase L | CD signal of RNase L upon addition of compound (RNase L [4]): increase in signal intensity at 220 nm | Relative RNA Cleavage (RNase L [1]; 50 μM, highest level of cleavage observed, set to 1): 1 | STD-NMR transfer of magnetization (lysozyme): no transfer was observed | co-immunoprecipitation of RNA with RNase L (pre-miR-21 and RNase L): Neither RNA was pulled down | co-immunoprecipitation of RNA with RNase L [5]: Neither RNA was pulled down

Structure (SMILES): CN1CCN(c2ccc3nc(-c4c(N)c5c(F)cccc5[nH]c4=O)[nH]c3c2)CC1 [Dovitinib, reference compound]
IC50 [6]: ~1000 nM

More lines, main results first:

RNase L dimerization (RNase L [2]): induces RNase L dimerization
Structure (SMILES): CCCCCCCCc1ccsc1-c1cccc(-c2ccc(CN(C)[C@H](C(=O)NC)c3ccccc3)cc2)c1 [Compound 2, (S)—N-methyl-2-(methyl((3′-(3-octylthiophen-2-yl)-[1,1′-biphenyl]-4-yl)methyl)amino)-2-phenylacetamide]
Relative RNA Cleavage (cleavage of fluorescently labeled RNA, RNase L activation) (RNase L [1]): induced dose-dependent RNA cleavage to a greater extent than 1

Relative RNA Cleavage (cleavage of fluorescently labeled RNA, RNase L activation) (RNase L [1]): retained RNase L activation activity
Structure (SMILES): CNC(=O)[C@H](c1ccccc1)N(C)Cc1ccc(-c2cccc(-c3sccc3NC(=O)CCOCCOCCOCCC(=O)OC(C)(C)C)c2)cc1 [Compound 5, tert-butyl (S)-3-(2-(2-(3-((2-(4′-((methyl(2-(methylamino)-2-oxo-1-phenylethyl)-amino)methyl)-[1,1′-biphenyl]-3-yl)thiophen-3-yl)amino)-3-oxopropoxy)ethoxy)-ethoxy) propanoate]
